{
  "source": "paper PMC7408072",
  "about": "(Pharmaceutics, 2020)",
  "key": {"[1]": {"details": "cited from earlier work", "experimental": "Peptide-based drugs are prone to chemical degradation when presented to enzymes during systemic circulation. Therefore, the stability of the peptide constructs was examined in serum-supplemented media and during incubation in a state-of-the-art in vitro BBB model made up of primary BCECs co-cultured with primary rat astrocytes. Despite their common peptide nature, the stability varied markedly. […] The half-life of ^125I-labelled Tat ([…]) in mouse serum h ..."}, "[2]": {"details": "cited from earlier work", "excerpt": "We detected 0.4% ± 0.1% of injected dose/g of TAMRA-Tat in mouse brain homogenate, which is in line with a previous study reporting 0.1% of injected dose/g of ^111In-DOTA-labelled Tat ([…]) following 1-h circulation in mice. Moreover, less TAMRA-Tat-NR2B9c and TAMRA-Tat-N-dimer appeared to accumulate in the brain compared to TAMRA-Tat. This observation is in agreement with the observed BBB permeation by the Tat-conjugated peptides in live mice, supporting our earlier notion that cargo conjugation to Tat impacts its resulting brain delivery.", "remark": "listed apart in the source"}, "[3]": {"system": "bovine BCECs co-cultured with rat astrocytes", "assay": "Peptide uptake into endothelial cells and astrocytes by confocal microscopy after fixation (bovine BBB model)", "format": "cell-based", "details": "10 µM or 100 µM TAMRA, 3 h, fixed cells, confocal microscopy (Figure S4)", "experimental": "[…] TEER was measured at room temperature using an Endohm 12 cup (World Precision Instruments, Sarasota, FL, USA) connected to a Millicell-ERS device (Millipore, Bedford, MA, USA). TEER was measured before application of the peptides and after each experiment. The bovine model had initial TEER values ranging from 771 to 1332 Ω·cm^2, whereas the mouse model had initial TEER values ranging from 136 to 217 Ω·cm^2.\nTo visualize the TAMRA-peptide taken up by the endothelial cells and astrocytes, the remaining filters (one per batch) from the permeation study using the in vitro bovine BBB model were prepared for confocal microscopy. After removal of the peptide solutions, the cells were fixed with 3% paraformaldehyde in PBS for 15 min at room temperature with horizontal shaking (90 rpm). The cells were washed thrice with PBS prior to permeabilization in 0.1% Triton X-100 in PBS for 5 min and blocking in 2% BSA in PBS for 30 min at room temperature with horizontal shaking (90 rpm). The filter inserts were cut out, divided into smaller pieces, and transferred to a 48-well plate to stain zonula ocludens-1 (ZO-1) in the BCECs and F-actin in the astrocytes. Filter pieces with BCECs facing upwards were incubated with a primary antibody directed against ZO-1 (1:100 in PBS with 2% BSA; Thermo Fischer Scientific, Bedford, MA, USA, no. 617300) for 2 h at room temperature. Subsequently, the filters were washed thrice for 5 min in PBS with 2% BSA prior to 30 min incubation with an Alexa-488-conjugated secondary antibody (1:100 in PBS with 2% BSA; Thermo Fischer Scientific, Bedford, MA, USA, no. A11008). Filter pieces with astrocytes facing upwards were incubated with Alexa-488-conjugated phalloidin (1:133 in PBS with 2% BSA; Thermo Fischer Scientific, Bedford, MA, USA) for 30 min at room temperature and washed thrice for 5 min in PBS with 2% BSA. The filter pieces were mounted on glass slides under coverslips using Immu-Mount™ mounting media and imaged using single wavelength excitation a Zeiss 510 laser-scanning confocal microscope (Carl Zeiss, Jena, Germany)."}, "[4]": {"assay": "luminal incubation on bovine brain endothelial cells co-cultured with rat astrocytes in FBS-free differentiation medium", "details": "37 °C, up to 4 h"}, "[5]": {"assay": "differentiation medium (cell media supplemented with 10% fetal bovine serum (FBS))", "details": "37 °C, up to 4 h"}},
  "data": [
    {"substance": "GRKKRRQRRRPPQ [^111In-DOTA-labelled Tat]", "values": [
      {"measurement": "half-life in human serum", "setting": "[1]", "value": 8.8, "unit": "h"},
      {"measurement": "brain level following 1-h circulation in mice", "setting": "[2]", "value": "0.1 % of injected dose/g"}
    ]},
    {"substance": "TAMRA [reference compound]", "values": [
      {"measurement": "uptake of TAMRA as a single entity into the endothelial cells or the astrocytes", "setting": "[3]", "value": "not internalized"}
    ]},
    {"substance": "TAMRA-KLSSIESDV", "values": [
      {"measurement": "not cleaved", "setting": "[4]", "value": "95.7% ± 1.6% remaining after 4 h"},
      {"measurement": "not cleaved", "setting": "[5]", "value": "92.0% ± 12.6% of the initial concentration remaining after 4 h"}
    ]},
    {"substance": "YGRKKRRQRRR [^125I-labelled Tat]", "values": [
      {"measurement": "half-life in mouse serum", "setting": "[1]", "value": 2.7, "unit": "min"}
    ]}
  ]
}
